Test system: NOD/SCID mice
Experiment: In vivo analysis of homing of CFSE-labeled cells to bone marrow
Description: FIGS. 1a-1i are a graphic representation of flow cytometry analysis of the effect of nicotinamide on homing of hematopoietic stem cells into bone marrow of NOD/SCID mice. Non-cultured mononuclear cells or their entire progeny following 3-week expansion with cytokines and nicotinamide (cytokines+NA), or cytokines alone (cytokines) were labeled with CFSE and infused into sublethally irradiated NOD/SCID mice (10×10^6 cells/mouse for the non-cultured group containing 5×10^4 CD34+ cells and the total progeny of 5×10^4 CD34+ cells following 3-week expansion with or without nicotinamide; 20×10^6 cells/mouse containing 180×10^4 CD34+ cells). FIG. 1a is a histogram of the results of flow cytometry of recipient's bone marrow cells showing homing of CFSE+/CD34+ cells after transplantation. FIG. 1b is a histogram of the results of flow cytometry of recipient's bone marrow cells showing homing of total CFSE+ cells after transplantation. Homing of human cells is presented as number of positive events (cytometry) per 100,000 BM cells analyzed. Each bar represents the average ±SE of 3 independent experiments (6-7 mice/experimental group). […] Total human cells that home to the BM are gated (see area R2) based on low side scatter (y axis) and log fluorescence distribution of CFSC expression (x axis) (FIGS. 1c-1f). The bright fluorescence of CFSE was sufficient to separate labeled human cells from unlabeled murine cells by at least 1 log. Cells gated in R2 were then analyzed for CFSE (x axis) and CD34-APC (y axis) (FIGS. 1g-1i). […] After labeling, cells were washed three times in PBS supplemented with 10% FCS and analyzed by flow cytometry for fluorescence intensity, then injected intravenously into sublethally irradiated NOD/SCID mice (10-20 million cells per mouse). […] Homing of human cells was detected by flow cytometry via visualization of CFSE-stained cells over a background of unlabeled murine cells. The bright fluorescence of CFSE was sufficient to separate labeled human cells from unlabeled murine cells by at least 1 log. […]

## NC(=O)c1cccnc1 [nicotinamide]
3-week culture with cytokines + nicotinamide, 24 hours post transplantation, n=21, p<0.05
  homing of CD34+ cells to bone marrow relative to non-cultured CD34+ cells: 6 fold
3-week culture with cytokines + nicotinamide, total CFSE+ cells, 24 hours post transplantation, n=21, p<0.05
  homing of cultured cells (MNC) compared to nicotinamide-untreated cells: 2 fold
Summary statement on Example 2, mononuclear cells exposed to nicotinamide before transplantation
  homing to bone marrow over identical cells cultured without nicotinamide: sixfold

From US8846393B2, “Methods of improving stem cell homing and engraftment” (Gamida-Cell Ltd., priority 2005, dated 2014)
